pIC50: −log10 of the molar value. Where only a bound is given, the exact number is not on record here.

One experiment addresses IMP-1 (Serratia marcescens, UniProt P52699). As to the kind of experiment: Enzyme activity: determination of IC50, fluorescence assay with CCF2-FA substrate. The class given is biochemical. Particulars: enzyme 2 pM, CCF2-FA 1.25 μM, 2 hours at 25° C.; read-out: IMP1 IC50. An outline of the steps:
(§1)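 Enzyme (1 pM NDM-1, 2 pM IMP-1, 30 pM VIM-1) incubated with inhibitor (20 to 0.00063 μM) and 1.25 μM CCF2-FA in 100 mM KH2PO4 pH 7, 0.005% Tween-20, 10 μM ZnSO4, 2 h at 25 °C. Fluorescence read at 460 nm (ex 405 nm); IC50 by 4-parameter fit.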

The next experiment addresses NDM-1 (Klebsiella pneumoniae, UniProt C7C422). The experiment is described as above. Particulars: enzyme 1 pM, CCF2-FA 1.25 μM, 2 hours at 25° C.; read-out: NDM1 IC50. The format is biochemical. An outline of the steps:
as §1

The next experiment deals with VIM-1 (Pseudomonas aeruginosa, UniProt A0A0F7KYQ8). The experiment is described as above. The settings on record: enzyme 30 pM, CCF2-FA 1.25 μM, 2 hours at 25° C.; read-out: VIM1 IC50. The format is biochemical. The method in brief: as §1
For experiment [1], the system named is Serratia marcescens expressing IMP-1 (CL5741). Kind of experiment: Antibiotic potentiation activity: synergistic concentration (MITC95) with imipenem, growth by OD600. The format is cell-based. Particulars: 95% inhibition of bacterial growth, strain CL5741. An outline of the steps:
(§2)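 Strains grown overnight at 35° C, resuspended in saline, diluted 1:100 into 1.1×CAMHB; imipenem at 1 μg/ml or 4 μg/ml with test compound 200 μM to 0.195 μM. Incubated 22 hours to 24 hours at 35° C, OD600 read; MITC95 is lowest compound concentration inhibiting 95% of growth.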

Experiment [2] concerns Escherichia coli expressing NDM-1 (CLB30005). Described as above. The class given is cell-based. The settings on record: 95% inhibition of bacterial growth, strain CLB30005. The method in brief: as §2
For experiment [3], the system named is Klebsiella pneumoniae expressing VIM-1 (IHMA599644). The description is as above. The format is cell-based. Particulars: 95% inhibition of bacterial growth, strain IHMA599644. The method in brief: as §2

Chain of IMP-1 (P52699 19-246, looked up, species assumed): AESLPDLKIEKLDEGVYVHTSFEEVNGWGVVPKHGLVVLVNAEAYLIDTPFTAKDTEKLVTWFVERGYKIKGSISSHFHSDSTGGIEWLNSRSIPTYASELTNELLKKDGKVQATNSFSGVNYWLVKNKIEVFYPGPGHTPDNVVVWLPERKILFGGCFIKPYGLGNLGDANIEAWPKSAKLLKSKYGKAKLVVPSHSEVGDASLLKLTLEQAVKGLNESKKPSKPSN
Chain of NDM-1 (C7C422 29-270, looked up, species assumed): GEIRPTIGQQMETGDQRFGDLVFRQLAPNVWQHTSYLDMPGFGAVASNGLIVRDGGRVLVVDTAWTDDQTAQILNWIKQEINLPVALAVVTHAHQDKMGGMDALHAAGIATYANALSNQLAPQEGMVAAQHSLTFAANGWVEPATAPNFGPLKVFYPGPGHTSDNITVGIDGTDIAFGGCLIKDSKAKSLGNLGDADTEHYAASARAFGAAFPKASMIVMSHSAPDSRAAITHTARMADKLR

A word on the pIC50: it is the IC50 on a negative log10 scale, so that one unit is a factor of ten. For `CC(C)C[C@H](C(=O)O)[C@H](Cc1ccccc1)c1nnn[nH]1` [Example 7, (2S)-4-methyl-2-[(2S)-2-phenyl-1-(1H-tetrazol-5-yl)ethyl]pentanoic acid], the pIC50 on IMP-1 was 7.28; on NDM-1, 7.72; on VIM-1, 8.48. Besides, the “IMP1 SM5741 MITC95” value in experiment [1] turned out to be 62.5 µM. Besides, the “NDM1 EC30005 MITC95” value in experiment [2] came out at 18.8 µM. In addition, in experiment [3], the “VIM1 KP599644 MITC95” value came out at 37.5 µM.

In the case of `CC[C@H](C(=O)O)[C@H](Cc1ccccc1)c1nnn[nH]1` [Example 8, (2S,3S)-2-ethyl-4-phenyl-3-(1H-tetrazol-5-yl)butanoic acid], the pIC50 at IMP-1 was 5.74; at NDM-1 it was 7.09; on VIM-1 it was 7.68. Further, the “IMP1 SM5741 MITC95” value in experiment [1] is 125 µM. Besides, the “NDM1 EC30005 MITC95” value in experiment [2] was determined as 9.4 µM. The “VIM1 KP599644 MITC95” value in experiment [3] stood at 62.5 µM.

In the case of `COCCC[C@H](C(=O)O)[C@H](Cc1ccccc1)c1nnn[nH]1` [Example 9, (2S)-5-methoxy-2-[(1S)-2-phenyl-1-(1H-tetrazol-5-yl)ethyl]pentanoic acid], the pIC50 was 6.07 on IMP-1, 7.01 at NDM-1 and 7.20 on VIM-1. Besides, in experiment [1], the “IMP1 SM5741 MITC95” value came to 25 µM. In addition, the “NDM1 EC30005 MITC95” value in experiment [2] came to 31 µM. In experiment [3], the “VIM1 KP599644 MITC95” value stood at 200 µM.

As for `O=C(O)[C@@H](CC1CCCC1)[C@H](Cc1ccccc1)c1nnn[nH]1` [Example 10, (2S,3S)-2-(cyclopentylmethyl)-4-phenyl-3-(1H-tetrazol-5-yl)butanoic acid], the pIC50 was 7.32 on IMP-1, 7.33 on NDM-1 and 7.54 at VIM-1. For the same compound, in experiment [1], the “IMP1 SM5741 MITC95” value turned out to be 7.0 µM. Moreover, the “NDM1 EC30005 MITC95” value in experiment [2] was 50 µM. For the same compound, in experiment [3], the “VIM1 KP599644 MITC95” value came to 150 µM.

Regarding `O=C(O)[C@@H](CCC1CCCCC1)[C@H](Cc1ccccc1)c1nnn[nH]1` [Example 11, (2S,3S)-2-(2-cyclohexylethyl)-4-phenyl-3-(1H-tetrazol-5-yl)butanoic acid], the pIC50 is 6.64 at IMP-1, 7.24 on NDM-1 and 7.47 at VIM-1. Also, in experiment [1], the “IMP1 SM5741 MITC95” value was 27 µM. In experiment [2], the “NDM1 EC30005 MITC95” value amounted to 25 µM. For the same compound, the “VIM1 KP599644 MITC95” value in experiment [3] was over 200 µM.

As to `O=C(O)[C@@H](C1CCOCC1)[C@H](Cc1ccccc1)c1nnn[nH]1` [Example 12, (2S,3S)-4-phenyl-2-(tetrahydro-2H-pyran-4-yl)-3-(1H-tetrazol-5-yl)butanoic acid], the pIC50 on IMP-1 is 5.98; at NDM-1 it was 7.00; on VIM-1, 7.07. Moreover, the “IMP1 SM5741 MITC95” value in experiment [1] was 200 µM. The “NDM1 EC30005 MITC95” value in experiment [2] is 12.5 µM. Further, the “VIM1 KP599644 MITC95” value in experiment [3] worked out at 200 µM.

On to `O=C(O)[C@@H](CC1CC1)[C@H](Cc1ccccc1)c1nnn[nH]1` [Example 13, (2S,3S)-2-(cyclopropylmethyl)-4-phenyl-3-(1H-tetrazol-5-yl)butanoic acid], for which the pIC50 at IMP-1 was 6.34; on NDM-1, 6.89; on VIM-1 it was 7.80. In addition, the “IMP1 SM5741 MITC95” value in experiment [1] amounted to 150 µM. For the same compound, in experiment [2], the “NDM1 EC30005 MITC95” value came out at 12.5 µM. Besides, the “VIM1 KP599644 MITC95” value in experiment [3] was found to be 50 µM.

Turning to `CC(C)=CCC[C@@H](C(=O)O)[C@H](Cc1ccccc1)c1nnn[nH]1` [Example 14, (2R)-6-methyl-2-[(1S)-2-phenyl-1-(1H-tetrazol-5-yl)ethyl]hept-5-enoic acid], the pIC50 was 5.80 on IMP-1, 6.82 on NDM-1 and 7.43 on VIM-1. For the same compound, in experiment [1], the “IMP1 SM5741 MITC95” value was 200 µM. In experiment [2], the “NDM1 EC30005 MITC95” value came out at 15.6 µM. For the same compound, the “VIM1 KP599644 MITC95” value in experiment [3] is 100 µM.

The values above are taken from patent publication US9839642B2, “Beta-tetrazolyl-propionic acids as metallo-beta-lactamase inhibitors” (priority 2014, dated 2017).
